Laboratory results reported in patent publication US6423541B1, “Process for in vitro selection of high methol producing genotypes” (Council of Scientific&Industrial Reaearch, priority 2000, dated 2002).

Assays:
Assay in all cases: Survival of in vitro raised shoots on menthol containing MS basal medium
Type in all cases: cell-based
[1] = test system: regenerated shoots of Mentha arvensis variety Kalka
Description: (§1) The plant varieties analysed were Himalaya, Shivalik, Gomti, MAS-1, Kosi, Kalka of Mentha arvensis L. (2n=96). The suckers of these plant varieties were obtained from CIMAP's national gene bank for medicinal and aromatic plants for planting. The explant materials were collected from the field grown plants and surface sterilized by washing sequentially with 2% detergent, distilled water containing a few drops of Savlon (Johnson and Johnson, India), 0.1% acidified mercuric chloride and autoclaved distilled water before inoculation. About 1 cm long internodal pieces were inoculated in the MS medium (Murasighe and Skoog, 1962) containing vitamins, 100 mg l^−1 myo-inositol 3% wv^−1 sucrose, 1.5% wv^−1 agar (Difco), 0.5 .μg ml^−1 of an auxin, (NAA, 1-napthalene acetic acid) and 5 μg ml^−1 of a cytokinin (BAP, benzyl aminopurine) (Shasany et al, 1998). The cultures were grown at 25±2° C. and 400 to 600 lux light intensity with 16 h photoperiod. The regenerated shoots were separated 12 weeks after the explant inoculation for rooting and/or testing menthol tolerance.
(§2) The regenerated shoots (3-4 cm long, containing the apical bud and 2-3 nodes) separated after 12 weeks, were inoculated into MS basal medium with or without menthol (0 to 100 μg ml^−1). Concentration of menthol in each treatment was stepped up by 10 μg in a sequential manner. On each kind of these media, 5 independently regenerated shoots were inoculated per flask; 4 flasks were inoculated per replication and each treatment was replicated 5 times, making the number of flasks to 20 and number of explants to 100 for each concentration of menthol. The experiment was conducted in the completely randomized design (CRD) fashion. Cultures were incubated and maintained at 25±2° C. and 400-600 lux light intensity with 16-hour photoperiod. The wilting response and lethality in explants was recorded every 24 hours over a period of one week.

[2] = test system: regenerated shoots of Mentha arvensis variety Himalaya
Description: as §1, §2

[3] = test system: regenerated shoots of Mentha arvensis variety MAS-1
Description: as §1, §2

[4] = test system: regenerated shoots of Mentha arvensis variety Gomti
Description: as §1, §2

[5] = test system: regenerated shoots of Mentha arvensis variety Shivalik
Description: as §1, §2

[6] = test system: regenerated shoots of Mentha arvensis variety Kosi
Description: as §1, §2

[7] = 100-ppm menthol, twenty-four hours after incubation
[8] = menthol 10 μg ml^−1, 20 shoots tested per replication
[9] = menthol 20 μg ml^−1, 20 shoots tested per replication
[10] = menthol 30 μg ml^−1, 20 shoots tested per replication
[11] = menthol 40 μg ml^−1, 20 shoots tested per replication
[12] = menthol 50 μg ml^−1, 20 shoots tested per replication
[13] = menthol 60 μg ml^−1, 20 shoots tested per replication
[14] = menthol 70 μg ml^−1, 20 shoots tested per replication
[15] = menthol 80 μg ml^−1, 20 shoots tested per replication
[16] = menthol 90 μg ml^−1, 20 shoots tested per replication
[17] = menthol 100 μg ml^−1, 20 shoots tested per replication

Structure (SMILES): CC1CCC(C(C)C)C(O)C1 (stereo not shown) [menthol]
- lethality [1, 7]: 98%
- Survival after 7 days Number ([1]; menthol 10 μg ml^−1): 20.0 ± 0.00
- Survival after 24 hours Number [1, 8]: 20.0 ± 0.00
- Survival after 7 days Number ([1]; menthol 20 μg ml^−1): 20.0 ± 0.00
- Survival after 24 hours Number [1, 9]: 20.0 ± 0.00
- Survival after 7 days Number ([1]; menthol 30 μg ml^−1): 20.0 ± 0.00
- Survival after 24 hours Number [1, 10]: 20.0 ± 0.00
- Survival after 7 days Number ([1]; menthol 40 μg ml^−1): 17.6 ± 0.66
- Survival after 24 hours Number [1, 11]: 20.0 ± 0.00
- Survival after 7 days Number ([1]; menthol 50 μg ml^−1): 13.8 ± 0.86
- Survival after 24 hours Number [1, 12]: 19.4 ± 0.52
- Survival after 7 days Number ([1]; menthol 60 μg ml^−1): 10.0 ± 0.91
- Survival after 24 hours Number [1, 13]: 17.0 ± 0.41
- Survival after 7 days Number ([1]; menthol 70 μg ml^−1): 4.0 ± 0.81
- Survival after 24 hours Number [1, 14]: 11.0 ± 0.58
- Survival after 7 days Number ([1]; menthol 80 μg ml^−1): 0.0 ± 0.00
- Survival after 24 hours Number [1, 15]: 6.0 ± 0.82
- Survival after 7 days Number ([1]; menthol 90 μg ml^−1): 0.0 ± 0.00
- Survival after 24 hours Number [1, 16]: 3.0 ± 0.36
- Survival after 7 days Number ([1]; menthol 100 μg ml^−1): 0.0 ± 0.00
- Survival after 24 hours Number [1, 17]: 0.4 ± 0.26
- lethality [2, 7]: 100%
- Survival after 7 days Number ([2]; menthol 10 μg ml^−1): 20.0 ± 0.00
- Survival after 24 hours Number [2, 8]: 20.0 ± 0.00
- Survival after 7 days Number ([2]; menthol 20 μg ml^−1): 20.0 ± 0.00
- Survival after 24 hours Number [2, 9]: 20.0 ± 0.00
- Survival after 7 days Number ([2]; menthol 30 μg ml^−1): 20.0 ± 0.00
- Survival after 24 hours Number [2, 10]: 20.0 ± 0.00
- Survival after 7 days Number ([2]; menthol 40 μg ml^−1): 17.6 ± 0.66
- Survival after 24 hours Number [2, 11]: 20.0 ± 0.00
- Survival after 7 days Number ([2]; menthol 50 μg ml^−1): 9.0 ± 0.41
- Survival after 24 hours Number [2, 12]: 17.0 ± 0.91
- Survival after 7 days Number ([2]; menthol 60 μg ml^−1): 2.0 ± 0.41
- Survival after 24 hours Number [2, 13]: 14.0 ± 0.91
- Survival after 7 days Number ([2]; menthol 70 μg ml^−1): 0.2 ± 0.26
- Survival after 24 hours Number [2, 14]: 9.0 ± 0.91
- Survival after 7 days Number ([2]; menthol 80 μg ml^−1): 0.0 ± 0.00
- Survival after 24 hours Number [2, 15]: 4.0 ± 0.58
- Survival after 7 days Number ([2]; menthol 90 μg ml^−1): 0.0 ± 0.00
- Survival after 24 hours Number [2, 16]: 2.0 ± 0.40
- Survival after 7 days Number ([2]; menthol 100 μg ml^−1): 0.0 ± 0.00
- Survival after 24 hours Number [2, 17]: 0.0 ± 0.00
- survival ([3]; 80 ppm menthol, after 7 days of incubation): 2%
- lethality [3, 7]: 98%
- Survival after 7 days Number ([3]; menthol 10 μg ml^−1): 20.0 ± 0.00
- Survival after 24 hours Number [3, 8]: 20.0 ± 0.00
- Survival after 7 days Number ([3]; menthol 20 μg ml^−1): 20.0 ± 0.00
- Survival after 24 hours Number [3, 9]: 20.0 ± 0.00
- Survival after 7 days Number ([3]; menthol 30 μg ml^−1): 20.0 ± 0.00
- Survival after 24 hours Number [3, 10]: 20.0 ± 0.00
- Survival after 7 days Number ([3]; menthol 40 μg ml^−1): 18.0 ± 0.57
- Survival after 24 hours Number [3, 11]: 20.0 ± 0.00
- Survival after 7 days Number ([3]; menthol 50 μg ml^−1): 13.4 ± 0.66
- Survival after 24 hours Number [3, 12]: 19.0 ± 0.57
- Survival after 7 days Number ([3]; menthol 60 μg ml^−1): 10.0 ± 0.91
- Survival after 24 hours Number [3, 13]: 16.0 ± 0.57
- Survival after 7 days Number ([3]; menthol 70 μg ml^−1): 3.0 ± 0.58
- Survival after 24 hours Number [3, 14]: 10.0 ± 0.82
- Survival after 7 days Number ([3]; menthol 80 μg ml^−1): 0.4 ± 0.32
- Survival after 24 hours Number [3, 15]: 5.0 ± 0.41
- Survival after 7 days Number ([3]; menthol 90 μg ml^−1): 0.0 ± 0.00
- Survival after 24 hours Number [3, 16]: 3.0 ± 0.32
- Survival after 7 days Number ([3]; menthol 100 μg ml^−1): 0.0 ± 0.00
- Survival after 24 hours Number [3, 17]: 0.4 ± 0.32
- lethality [4, 7]: 99%
- Survival after 7 days Number ([4]; menthol 10 μg ml^−1): 20.0 ± 0.00
- Survival after 24 hours Number [4, 8]: 20.0 ± 0.00
- Survival after 7 days Number ([4]; menthol 20 μg ml^−1): 20.0 ± 0.00
- Survival after 24 hours Number [4, 9]: 20.0 ± 0.00
- Survival after 7 days Number ([4]; menthol 30 μg ml^−1): 20.0 ± 0.00
- Survival after 24 hours Number [4, 10]: 20.0 ± 0.00
- Survival after 7 days Number ([4]; menthol 40 μg ml^−1): 16.8 ± 0.48
- Survival after 24 hours Number [4, 11]: 20.0 ± 0.00
- Survival after 7 days Number ([4]; menthol 50 μg ml^−1): 7.0 ± 0.41
- Survival after 24 hours Number [4, 12]: 16.0 ± 0.90
- Survival after 7 days Number ([4]; menthol 60 μg ml^−1): 4.0 ± 0.57
- Survival after 24 hours Number [4, 13]: 12.0 ± 0.71
- Survival after 7 days Number ([4]; menthol 70 μg ml^−1): 0.4 ± 0.32
- Survival after 24 hours Number [4, 14]: 6.0 ± 0.32
- Survival after 7 days Number ([4]; menthol 80 μg ml^−1): 0.0 ± 0.00
- Survival after 24 hours Number [4, 15]: 1.6 ± 0.31
- Survival after 7 days Number ([4]; menthol 90 μg ml^−1): 0.0 ± 0.00
- Survival after 24 hours Number [4, 16]: 1.0 ± 0.41
- Survival after 7 days Number ([4]; menthol 100 μg ml^−1): 0.0 ± 0.00
- Survival after 24 hours Number [4, 17]: 0.2 ± 0.26
- lethality [5, 7]: 98%
- Survival after 7 days Number ([5]; menthol 10 μg ml^−1): 20.0 ± 0.00
- Survival after 24 hours Number [5, 8]: 20.0 ± 0.00
- Survival after 7 days Number ([5]; menthol 20 μg ml^−1): 20.0 ± 0.00
- Survival after 24 hours Number [5, 9]: 20.0 ± 0.00
- Survival after 7 days Number ([5]; menthol 30 μg ml^−1): 20.0 ± 0.00
- Survival after 24 hours Number [5, 10]: 20.0 ± 0.00
- Survival after 7 days Number ([5]; menthol 40 μg ml^−1): 18.0 ± 0.41
- Survival after 24 hours Number [5, 11]: 20.0 ± 0.00
- Survival after 7 days Number ([5]; menthol 50 μg ml^−1): 11.0 ± 0.41
- Survival after 24 hours Number [5, 12]: 18.0 ± 0.91
- Survival after 7 days Number ([5]; menthol 60 μg ml^−1): 5.0 ± 0.71
- Survival after 24 hours Number [5, 13]: 15.0 ± 0.11
- Survival after 7 days Number ([5]; menthol 70 μg ml^−1): 2.0 ± 0.32
- Survival after 24 hours Number [5, 14]: 8.0 ± 0.91
- Survival after 7 days Number ([5]; menthol 80 μg ml^−1): 0.0 ± 0.00
- Survival after 24 hours Number [5, 15]: 4.0 ± 0.41
- Survival after 7 days Number ([5]; menthol 90 μg ml^−1): 0.0 ± 0.00
- Survival after 24 hours Number [5, 16]: 2.0 ± 0.41
- Survival after 7 days Number ([5]; menthol 100 μg ml^−1): 0.0 ± 0.00
- Survival after 24 hours Number [5, 17]: 0.4 ± 0.32
- lethality [6, 7]: 99%
- Survival after 7 days Number ([6]; menthol 10 μg ml^−1): 20.0 ± 0.00
- Survival after 24 hours Number [6, 8]: 20.0 ± 0.00
- Survival after 7 days Number ([6]; menthol 20 μg ml^−1): 20.0 ± 0.00
- Survival after 24 hours Number [6, 9]: 20.0 ± 0.00
- Survival after 7 days Number ([6]; menthol 30 μg ml^−1): 20.0 ± 0.00
- Survival after 24 hours Number [6, 10]: 20.0 ± 0.00
- Survival after 7 days Number ([6]; menthol 40 μg ml^−1): 18.0 ± 0.41
- Survival after 24 hours Number [6, 11]: 20.0 ± 0.00
- Survival after 7 days Number ([6]; menthol 50 μg ml^−1): 10.0 ± 0.52
- Survival after 24 hours Number [6, 12]: 17.0 ± 0.41
- Survival after 7 days Number ([6]; menthol 60 μg ml^−1): 8.0 ± 0.82
- Survival after 24 hours Number [6, 13]: 15.0 ± 0.91
- Survival after 7 days Number ([6]; menthol 70 μg ml^−1): 1.0 ± 0.40
- Survival after 24 hours Number [6, 14]: 7.0 ± 0.82
- Survival after 7 days Number ([6]; menthol 80 μg ml^−1): 0.0 ± 0.00
- Survival after 24 hours Number [6, 15]: 3.0 ± 0.41
- Survival after 7 days Number ([6]; menthol 90 μg ml^−1): 0.0 ± 0.00
- Survival after 24 hours Number [6, 16]: 2.0 ± 0.32
- Survival after 7 days Number ([6]; menthol 100 μg ml^−1): 0.0 ± 0.00
- Survival after 24 hours Number [6, 17]: 0.2 ± 0.32
